# According to patent publication US10022422B2, “Peptidomimetic macrocycles” (priority 2009, dated 2018):
# Where a SMILES comes first, the peptide text is derived from it. Bridges are numbered along the chain shown (N, C = ends). [ ]: non-standard residue; d: D form. R8 = C=CCCCCCC[C@@](C)(N)C(=O)O; S5 = C=CCCC[C@](C)(N)C(=O)O; Nle = CCCC[C@H](N)C(=O)O; Aib = CC(C)(N)C(=O)O
# Test: Figure 6
# Set-up: AUC,all / AUC,inf: concentration or dose not given beside the values
# Text: Table printed on a drawing sheet, Figure 6
# First reader's note: The head SP-2 is printed shifted to the left of its column of values.
Structure (SMILES),"AUC,all","AUC,inf",Cl,"Cmax, obs",MRT,T1/2,Vss
"CCCC[C@H](NC(C)=O)C(=O)N[C@@H](CC(=O)O)C(=O)N[C@H](C(=O)N[C@@H](CC(N)=O)C(=O)N1CCC[C@H]1C(=O)N[C@H](C(=O)N[C@@H](CC(C)C)C(=O)N[C@@H](CC(C)C)C(=O)N[C@@H](Cc1ccccc1)C(=O)N[C@@H](CC(C)C)C(=O)N[C@@H](CCCCN)C(=O)N[C@H](C(=O)N1CCC[C@H]1C(=O)N[C@@H](C)C(=O)N[C@@H](CCC(N)=O)C(N)=O)C(C)C)[C@@H](C)O)C(C)C [SP-1, Ac-NleDVNPTLLFLKVPAQ-NH2]",1606 ng·h/mL,1616 ng·h/mL,31.22 mL/min/kg,7742 ng/mL,0.13 h,0.16 h,0.241 L/kg
"CCCC[C@H](NC(C)=O)C(=O)N[C@@H](CC(=O)O)C(=O)N[C@H](C(=O)N[C@@H](CC(N)=O)C(=O)NC(C)(C)C(=O)N[C@H](C(=O)N[C@@H](CC(C)C)C(=O)N[C@@H](CC(C)C)C(=O)N[C@@H](Cc1ccccc1)C(=O)N[C@@H](CC(C)C)C(=O)N[C@@H](CCCCN)C(=O)N[C@H](C(=O)NC(C)(C)C(=O)N[C@@H](C)C(=O)N[C@@H](CCC(N)=O)C(N)=O)C(C)C)[C@@H](C)O)C(C)C [SP-2, Ac-NleDVNAibTLLFLKVAibAQ-NH2] (Ac-[Nle]DVN[Aib]TLLFLKV[Aib]AQ-NH2)",3360 ng·h/mL,3385 ng·h/mL,15 mL/min/kg,8145 ng/mL,0.41 h,0.33 h,0.366 L/kg
"CCCC[C@H](NC(C)=O)C(=O)N[C@@H](CC(=O)O)C(=O)N[C@H](C(=O)N[C@@H](CC(N)=O)C(=O)NC(C)(C)C(=O)N[C@H](C(=O)N[C@@H](CC(C)C)C(=O)N[C@@H](CC(C)C)C(=O)N[C@@H](Cc1ccccc1)C(=O)N[C@@]1(C)CCCC=CCCC[C@@](C)(C(=O)N[C@@H](CCCNC(=N)N)C(N)=O)NC(=O)[C@H](C)NC(=O)[C@H](C(C)C)NC(=O)[C@H](CCCCN)NC1=O)[C@@H](C)O)C(C)C [SP-6, Ac-NleDVNAibTLLF$KVA$R-NH2] (Ac-[Nle]DVN[Aib]TLLF[S5]KVA[S5]R-NH2; staple 10-14)",10894 ng·h/mL,10976 ng·h/mL,4.65 mL/min/kg,12564 ng/mL,1.25 h,1.29 h,0.348 L/kg
"CCCC[C@H](NC(C)=O)C(=O)N[C@@H](CC(=O)O)C(=O)N[C@H](C(=O)N[C@@H](CC(N)=O)C(=O)NC(C)(C)C(=O)N[C@H](C(=O)N[C@@H](CC(C)C)C(=O)N[C@@]1(C)CCCC=CCCC[C@@](C)(C(=O)N[C@@H](C)C(=O)N[C@@H](C)C(=O)N[C@@H](CCC(N)=O)C(N)=O)NC(=O)[C@H](CCCCN)NC(=O)[C@H](CC(C)C)NC(=O)[C@H](Cc2ccccc2)NC1=O)[C@@H](C)O)C(C)C [SP-9, Ac-NleDVNAibTL$FLK$AAQ-NH2] (Ac-[Nle]DVN[Aib]TL[S5]FLK[S5]AAQ-NH2; staple 8-12)",8190 ng·h/mL,11950 ng·h/mL,5.67 mL/min/kg,9766 ng/mL,1.41 h,1.59 h,0.363 L/kg
"CCCC[C@H](NC(C)=O)C(=O)N[C@@H](CC(=O)O)C(=O)N[C@H](C(=O)N[C@@H](CC(N)=O)C(=O)N1CCC[C@H]1C(=O)N[C@H](C(=O)N[C@@H](CC(C)C)C(=O)N[C@@]1(C)CCCC=CCCC[C@@](C)(C(=O)N[C@@H](C)C(=O)N[C@@H](C)C(=O)N[C@@H](CCC(N)=O)C(N)=O)NC(=O)[C@H](CCCCN)NC(=O)[C@H](CC(C)C)NC(=O)[C@H](Cc2ccccc2)NC1=O)[C@@H](C)O)C(C)C [SP-10, Ac-NleDVNPTL$FLK$AAQ-NH2] (Ac-[Nle]DVNPTL[S5]FLK[S5]AAQ-NH2; staple 8-12)",5770 ng·h/mL,5800 ng·h/mL,8.85 mL/min/kg,11408 ng/mL,0.55 h,0.56 h,0.29 L/kg
"CCCC[C@H](NC(C)=O)C(=O)N[C@@H](CC(=O)O)C(=O)N[C@H](C(=O)N[C@@H](CC(N)=O)C(=O)N1CCC[C@H]1C(=O)N[C@H](C(=O)N[C@@H](CC(C)C)C(=O)N[C@@H](CC(C)C)C(=O)N[C@@H](Cc1ccccc1)C(=O)N[C@@]1(C)CCCC=CCCC[C@@](C)(C(=O)N[C@@H](CCCNC(=N)N)C(N)=O)NC(=O)[C@H](C)NC(=O)[C@H](C(C)C)NC(=O)[C@H](CCCCN)NC1=O)[C@@H](C)O)C(C)C [SP-11, Ac-NleDVNPTLLF$KVA$R-NH2] (Ac-[Nle]DVNPTLLF[S5]KVA[S5]R-NH2; staple 10-14)",9065 ng·h/mL,9100 ng·h/mL,5.67 mL/min/kg,18748 ng/mL,0.52 h,0.54 h,0.178 L/kg
"CCCC[C@H](NC(C)=O)C(=O)N[C@@H](CC(=O)O)C(=O)N[C@H](C(=O)N[C@@H](CC(N)=O)C(=O)NC(C)(C)C(=O)N[C@H](C(=O)N[C@]1(C)CCCCCCC=CCCC[C@@](C)(C(=O)N[C@@H](CCCNC(=N)N)C(N)=O)NC(=O)[C@H](C)NC(=O)[C@H](C(C)C)NC(=O)[C@H](CCCCN)NC(=O)[C@H](CC(C)C)NC(=O)[C@H](Cc2ccccc2)NC(=O)[C@H](CC(C)C)NC1=O)[C@@H](C)O)C(C)C [SP-15, Ac-NlcDVNAibT$r8LFLKVA$R-NH2] (Ac-[Nle]DVN[Aib]T[R8]LFLKVA[S5]R-NH2; staple 7-14)",23300 ng·h/mL,25410 ng·h/mL,1.97 mL/min/kg,26524 ng/mL,1.92 h,1.49 h,0.226 L/kg

# Test: not given
Structure (SMILES),"AUC,inf","AUC,last",Cl,MRT,T1/2,Vss
"CCCC[C@H](NC(C)=O)C(=O)N[C@@H](CC(=O)O)C(=O)N[C@H](C(=O)N[C@@H](CC(N)=O)C(=O)NC(C)(C)C(=O)N[C@H](C(=O)N[C@@H](CC(C)C)C(=O)N[C@@H](CC(C)C)C(=O)N[C@@H](Cc1ccccc1)C(=O)N[C@@]1(C)CCCC=CCCC[C@@](C)(C(=O)N[C@@H](CCC(N)=O)C(N)=O)NC(=O)[C@H](C)NC(=O)[C@H](C(C)C)NC(=O)[C@H](CCCCN)NC1=O)[C@@H](C)O)C(C)C (single isomer, unassigned) [SP-8 IV Dose]",46700 ng·h/mL,46600 ng·h/mL,1.05 mL/min/kg,2 h,1 h,0.105 L/kg
"CCCC[C@H](NC(C)=O)C(=O)N[C@@H](CC(=O)O)C(=O)N[C@H](C(=O)N[C@@H](CC(N)=O)C(=O)NC(C)(C)C(=O)N[C@H](C(=O)N[C@@H](CC(C)C)C(=O)N[C@@H](CC(C)C)C(=O)N[C@@H](Cc1ccccc1)C(=O)N[C@@]1(C)CCCC=CCCC[C@@](C)(C(=O)N[C@@H](CCC(N)=O)C(N)=O)NC(=O)[C@H](C)NC(=O)[C@H](C(C)C)NC(=O)[C@H](CCCCN)NC1=O)[C@@H](C)O)C(C)C (single isomer, unassigned) [SP-8 Subcutaneous]",10200 ng·h/mL,9690 ng·h/mL,4.58 mL/min/kg,13 h,10 h,3.629 L/kg
